Results: patent US9394561B2, “Cyclic peptide production” (National Research Council of Canada, priority 2011, dated 2016)
“Also recorded” adds a separate entry of the source. Square brackets hold non-standard residues; d marks the D form. Ends that are not written are not given here.

Tested on: S. vaccaria PCY1
Assay: In vitro assay of recombinant S. vaccaria PCY1 with wild type and mutant presegetalin substrates, products detected by LC/MS
Format: biochemical, Saponaria vaccaria
Set-up: key to CP (cyclic peptide product detected by LC/MS after in vitro assay) / LP (linear peptide product detected by LC/MS after in vitro assay): +=presence; −=absence
Conditions: for linear peptide production by S. vaccaria PCY1 (in words) / cyclic peptide production by S. vaccaria PCY1 (in words): LC/MS and MS/MS; for LP (linear peptide product detected by LC/MS after in vitro assay) / CP (cyclic peptide product detected by LC/MS after in vitro assay): substrates tested for cyclization by S. vaccaria PCY1
Method: The gene corresponding to S. vaccaria PCY1 was cloned and expressed in E. coli with a His-tag. HisPur Cobalt Resin™ (Thermo Scientific) was used for purification of recombinant PCY1. The purified PCY1 was quantified using BCA method (Pierce; http://http://www.piercenet.com/) with BSA as a calibration standard. The in vitro assay contained 20 mM Tris buffer (pH 8.5), 100 mM NaCl, 5 mM DTT, 0.2 mg BSA, and 1.5 μg of substrates (wild type and mutant presegetalins, procured from Bio Basic Inc with >90% purity) and was initiated by the addition of 0.3 μg of PCY1, in a total reaction volume of 100 μl. The assay was incubated at 30° C. for up to 1 h and stopped by placing reactions in dry ice. The assays were lyophilized, re-suspended in methanol, evaporated and re-suspended in 50:50 v/v methanol/water for LC/MS analysis.
Ion trap ESI+ LC/MS/MS analysis was used to detect production of cyclic peptides using an Agilent 6320 Ion Trap LC/MS system under default Smart Parameter settings. The analyzer and ion optics were adjusted to achieve proper resolution (Agilent Installation Guide #G2440-90105) using the ESI Tuning Mix (Agilent #G2431A). The mass spectrometer scanned from 50 to 2200 mass units at 8100 mass units sec^−1 with an expected peak width of 0.35 atomic mass units. For auto MS/MS, the trap isolation width was 4 atomic mass units. The associated Agilent 1200 LC was fitted with a Zorbax 300 EXTEND-C18 column (150×2.1 mm, 3.5 μm particle size) maintained at 35° C. The binary solvent system consisted of 90:10 v/v water/acetonitrile containing 0.1% formic acid and 0.1% ammonium formate (solvent A) and 10:90 v/v water/acetonitrile containing 0.1% formic acid and 0.1% ammonium formate (solvent B). The separation gradient was 90:10 A/B to 50:50 A/B in 3 ml over 20 min.
In order to characterize substrate specificity of PCY1 and understand the segetalin A biosynthetic mechanism, a total of 44 substrates (Table 3) were tested for the PCY1 activity and the results are briefly summarized in Table 3. The last two columns in Table 3 summarize product type detected by LC/MS after in vitro assays (CP is cyclic peptide and LP is linear peptide, +=presence, −=absence, NA=not applicable). The 44 substrates were classified as follows: • (A) Presegetalin A1 [14,32], a wild type (WT) precursor of segetalin A • (B) Truncated mutants of presegetalin A1[14,32] • (C) Alanine scanning mutants corresponding to variants of the mature segetalin A sequence • (D) Alanine scanning mutants of the C-terminal region of presegetalin A1[14,32] • (E) D-amino acid mutants corresponding to variants of the mature segetalin A sequence • (F) Insertion mutants corresponding to variants of the mature segetalin A sequence • (G) Other A-class and F-class presegetalins • (H) Putative cyclic peptide precursors from Dianthus caryophyllus

Chain of S. vaccaria PCY1 (as listed by the source): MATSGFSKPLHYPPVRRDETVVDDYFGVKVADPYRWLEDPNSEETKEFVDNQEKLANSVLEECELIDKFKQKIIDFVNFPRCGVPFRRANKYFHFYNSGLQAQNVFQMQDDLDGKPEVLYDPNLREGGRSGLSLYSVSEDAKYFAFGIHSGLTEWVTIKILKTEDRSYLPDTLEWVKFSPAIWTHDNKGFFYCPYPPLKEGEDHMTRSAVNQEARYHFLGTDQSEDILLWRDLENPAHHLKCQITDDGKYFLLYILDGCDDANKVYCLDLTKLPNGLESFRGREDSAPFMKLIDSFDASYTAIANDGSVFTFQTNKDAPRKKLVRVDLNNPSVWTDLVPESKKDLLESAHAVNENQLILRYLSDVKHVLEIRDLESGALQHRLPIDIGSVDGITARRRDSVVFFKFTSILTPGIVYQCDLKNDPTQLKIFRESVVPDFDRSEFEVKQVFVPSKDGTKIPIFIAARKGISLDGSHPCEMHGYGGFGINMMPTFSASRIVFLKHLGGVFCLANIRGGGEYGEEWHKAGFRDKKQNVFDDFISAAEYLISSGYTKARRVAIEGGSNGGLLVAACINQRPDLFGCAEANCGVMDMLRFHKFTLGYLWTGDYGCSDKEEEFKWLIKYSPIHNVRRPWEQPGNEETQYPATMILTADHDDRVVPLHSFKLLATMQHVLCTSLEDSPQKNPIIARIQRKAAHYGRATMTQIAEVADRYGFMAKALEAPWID

Row | Substance | linear peptide production by S. vaccaria PCY1 (in words) | LP (linear peptide product detected by LC/MS after in vitro assay) | cyclic peptide production by S. vaccaria PCY1 (in words) | CP (cyclic peptide product detected by LC/MS after in vitro assay) | PCY1 activity (total amount of segetalin A produced) (WT precursor, optimized assay condition) | segetalin A production, times lower than the WT substrate (alanine scanning mutants of C-terminal region, FIG. 9) [times]
1 | 2 (GVPVWAFQAKDVENAPV; Presegetalin A1[14,30]) [compound 2] | almost equivalent to the linear peptide formed from the WT substrate | + |  |  |  | 
2 | 20 (GVPVWAFQAKDVEAASAPV; Presegetalin A1[14,32] N27A) [compound 20] |  | + | sensitive | + |  | 
3 | 19 (GVPVWAFQAKDVANASAPV; Presegetalin A1[14,32] E26A) [compound 19] |  | + | relatively higher amounts of segetalin A than that produced from WT substrate | + |  | 
4 | 1 (GVPVWAFQAKDVENASAPV; listed as Saponaria vaccaria) [compound 1] |  | + | segetalin A and the linear form (linear peptide) of segetalin A were produced; also recorded: cyclic peptide products were detected from all of them | + | 3 nmol/mg of protein/min | 
5 | 25 (GVPVWAFQAKDVENASAPA; Presegetalin A1[14,32] V32A) [compound 25] |  | + |  | + |  | 
6 | 41 (FSASYSSKPIQTQVSNGMDNASAPV; Presegetalin F1[14,38]) [compound 41] |  | − | cyclic peptide products were detected from all of them | + |  | 
7 | 27 (GV[dP]VWAFQAKDVENASAPV) [compound 27] |  | − |  | + |  | 
8 | 35 (GVAWAFQAKDVENASAPV; Presegetalin B1[14,31]) [compound 35] |  | − | cyclic peptide products were detected from all of them | + |  | 
9 | 10 (GVPAWAFQAKDVENASAPV; Presegetalin A1[14,32] variant aa17 = alanine) [compound 10] |  | + |  | + |  | 
10 | 12 (GVPVWVFQAKDVENASAPV; Presegetalin A1[14,32] variant aa19 = valine) [compound 12] | neither cyclic peptide nor linear peptide was detected | − | neither cyclic peptide nor linear peptide was detected | − |  | 
11 | 29 (GVPV[dW]AFQAKDVENASAPV) [compound 29] |  | + |  | + |  | 
12 | 28 (GVP[dV]WAFQAKDVENASAPV) [compound 28] |  | − |  | + |  | 
13 | 8 (GAPVWAFQAKDVENASAPV; Presegetalin A1[14,32] variant aa15 = alanine) [compound 8] |  | + |  | + |  | 
14 | 18 (GVPVWAFQAKDAENASAPV; Presegetalin A1[14,32] V25A) [compound 18] |  | + | relatively higher amounts of segetalin A than that produced from WT substrate | + |  | 
15 | 4 (GVPVWAFQAKD; Presegetalin A1[14,24]) [compound 4] | almost equivalent to the linear peptide formed from the WT substrate | + |  | − |  | 
16 | 16 (GVPVWAFQAADVENASAPV; Presegetalin A1[14,32] K23A) [compound 16] |  | + | sensitive | + |  | 
17 | 42 (FGTHGLPAPIQVPNGMDDACAPM; Presegetalin J1[14,36]) [compound 42] |  | − | cyclic peptide products were detected from all of them | + |  | 
18 | 26 (G[dV]PVWAFQAKDVENASAPV) [compound 26] |  | + |  | + |  | 
19 | 9 (GVAVWAFQAKDVENASAPV; Presegetalin A1[14,32] variant aa16 = alanine) [compound 9] |  | + |  | + |  | 
20 | 21 (GVPVWAFQAKDVENVSAPV; Presegetalin A1[14,32] A28V) [compound 21] |  | + | sensitive | + |  | 
21 | 33 (GVPAVWAFQAKDVENASAPV; Presegetalin A1[14,32] ins 16A17) [compound 33] | both detected | + | both detected | + |  | 
22 | 30 (GVPVW[dA]FQAKDVENASAPV) [compound 30] | neither cyclic peptide nor linear peptide were detected | − | neither cyclic peptide nor linear peptide were detected | − |  | 
23 | 14 (GVPVWAFAAKDVENASAPV; Presegetalin A1[14,32] Q21A) [compound 14] |  | + | sensitive | + |  | 
24 | 24 (GVPVWAFQAKDVENASAAV; Presegetalin A1[14,32] P31A) [compound 24] |  | + | sensitive | + |  | 11
25 | 36 (GLSFAFPAKDAENASSPV; Presegetalin D1[14,31]) [compound 36] |  | + | cyclic peptide products were detected from all of them | + |  | 
26 | 37 (GLSFAFQAKDAENASSPV; Presegetalin D1[14,31] P20Q) [compound 37] |  | − | resulted in a 5 amino acid cyclic peptide product | + |  | 
27 | Presegetalin A1[14,32]F20A (GVPVWAAQAKDVENASAPV; Presegetalin A1[14,32] F20A) [No. 13] | presence of linear peptide was confirmed by MS/MS analysis |  |  |  |  | 
28 | 15 (GVPVWAFQVKDVENASAPV; Presegetalin A1[14,32] A22V) [compound 15] |  | + |  | + |  | 
